Laboratory results taken from US7902144B2, “Therapeutic and diagnostic ligand systems comprising transport molecule binding properties and medicaments containing the same” (KTB Tumorforschungsgesellschaft mbH, priority 2000, dated 2011).

What was measured:
[1] = molecular target: HSA (Homo sapiens, UniProt P02768); test: Incubation with HSA followed by size-exclusion chromatography (Sephadex G-25); assay type: binding; settings: incubation of only a few seconds with HSA (or blood plasma), mole ratio 1:1, Sephadex G-25
[2] = molecular target: T1, human serum albumin (HSA) (Homo sapiens, UniProt P02768); test: Binding constant relative to HSA as stated in text
T1 construct: purchased Dessau company, Germany
Description: Thus BC-DOX1, after being brought into contact with HSA or after injection into the bloodstream, is tightly bound to that blood protein. Since BC-DOX1 in addition has a sulfonylhydrazone bond as an acid-labile bond between the carrier-molecule-affinitive substance and the cytostatic agent, in the acid environment of tumor tissue or in the acid intracellular compartments of the tumor cell, doxorubicin is released as the active substance so it can exert its therapeutic effect there.

[3] = molecular target: transferrin (Homo sapiens, UniProt P02787); test: Incubation with transferrin followed by size-exclusion chromatography (Sephadex G-25); assay type: binding
[4] = molecular target: T1, human serum albumin (HSA); test: Binding constants relative to HSA by equilibrium dialysis (Scatchard plot); settings: pH 7.4, Scatchard plot
Description: A Scatchard plot is used to determine the binding constants relative to human serum albumin (HSA from the Dessau company, Germany) at pH 7.4 by means of equilibrium dialysis (equilibrium dialyzer from Spectrum, Inc., USA; dialysis membrane: cut-off MW 10000) for the prepared doxorubicin derivatives, all including an acid-labile hydrazone bond as the predetermined breaking point, and for doxorubicin.

[5] = molecular target: T1, human serum albumin (HSA); settings: Literature value (Demant et al., Biochemical Pharmacology 55, 27-32, 1998); cited from earlier work

T1 sequence (P02768 25-609): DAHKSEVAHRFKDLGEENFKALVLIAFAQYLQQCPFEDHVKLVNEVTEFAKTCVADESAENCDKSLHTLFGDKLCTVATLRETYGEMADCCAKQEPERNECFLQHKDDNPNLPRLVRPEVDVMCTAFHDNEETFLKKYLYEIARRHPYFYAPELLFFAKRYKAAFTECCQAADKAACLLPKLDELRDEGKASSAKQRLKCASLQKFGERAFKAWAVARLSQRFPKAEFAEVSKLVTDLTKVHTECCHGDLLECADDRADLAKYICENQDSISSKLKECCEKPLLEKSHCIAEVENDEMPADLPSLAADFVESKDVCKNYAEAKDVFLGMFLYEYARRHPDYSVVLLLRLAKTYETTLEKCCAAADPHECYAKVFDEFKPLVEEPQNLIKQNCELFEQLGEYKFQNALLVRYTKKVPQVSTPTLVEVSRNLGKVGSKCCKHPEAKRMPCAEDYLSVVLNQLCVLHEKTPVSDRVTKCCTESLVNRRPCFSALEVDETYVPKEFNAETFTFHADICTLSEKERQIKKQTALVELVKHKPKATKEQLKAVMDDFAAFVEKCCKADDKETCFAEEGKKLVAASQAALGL
Chain of HSA (P02768 25-609): as above
Chain of transferrin (P02787 20-698, species assumed): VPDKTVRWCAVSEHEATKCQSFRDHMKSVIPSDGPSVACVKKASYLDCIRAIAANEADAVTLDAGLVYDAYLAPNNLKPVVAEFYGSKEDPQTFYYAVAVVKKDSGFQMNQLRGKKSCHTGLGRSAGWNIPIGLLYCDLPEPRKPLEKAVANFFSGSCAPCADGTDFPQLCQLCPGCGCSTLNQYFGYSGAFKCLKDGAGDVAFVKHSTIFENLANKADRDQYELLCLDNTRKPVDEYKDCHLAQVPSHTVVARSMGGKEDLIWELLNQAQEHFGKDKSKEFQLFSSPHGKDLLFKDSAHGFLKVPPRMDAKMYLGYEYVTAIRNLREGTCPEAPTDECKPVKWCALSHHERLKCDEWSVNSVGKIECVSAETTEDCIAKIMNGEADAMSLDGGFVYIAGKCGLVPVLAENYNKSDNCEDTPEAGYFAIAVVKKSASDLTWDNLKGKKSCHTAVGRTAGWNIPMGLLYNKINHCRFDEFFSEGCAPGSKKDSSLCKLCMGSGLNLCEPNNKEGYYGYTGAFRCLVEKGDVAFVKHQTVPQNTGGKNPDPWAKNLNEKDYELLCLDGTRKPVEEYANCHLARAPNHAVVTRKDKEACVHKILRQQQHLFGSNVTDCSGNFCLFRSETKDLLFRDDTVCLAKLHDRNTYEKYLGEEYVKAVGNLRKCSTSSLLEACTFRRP

Compound	behavior in size-exclusion chromatography after incubation with HSA [1]	KA relative to HSA [4]	other results
COc1cccc2c1C(=O)c1c(O)c3c(c(O)c1C2=O)C[C@@](O)(/C(CO)=N/NS(=O)(=O)c1ccccc1/C(=C1/C=C(Br)C(=O)C(Br)=C1C)c1cc(Br)c(O)c(Br)c1C)C[C@@H]3O[C@H]1CC(N)[C@H](O)C(C)O1 (stereo partly drawn) [BC-DOX1]	behavior like that of bromcresol green or bromcresol green sulfonic acid	–	binding constant relative to human serum albumin compared with free doxorubicin [2]: several orders of magnitude greater
Cc1c(C2(c3cc(Br)c(O)c(Br)c3C)OS(=O)(=O)c3ccccc32)cc(Br)c(O)c1Br [Bromcresol green, reference compound]	elute together with HSA	–	affinity for other plasma proteins [3]: do not exhibit high affinity
COc1cccc2c1C(=O)c1c(O)c3c(c(O)c1C2=O)C[C@](O)(/C(CO)=N/NC(=O)CCOCCOCCOCCOCCOCCOCCNS(=O)(=O)c1ccc2c(N=Nc4ccccc4)c(O)ccc2c1)C[C@@H]3O[C@H]1CC(N)[C@H](O)C(C)O1 (stereo partly drawn) [DOXO-CROC-HEXA]	–	7.2 × 10^7	–
CCCCCCCCCCCCCCCCCC(=O)N/N=C(\CO)[C@@]1(O)Cc2c(O)c3c(c(O)c2[C@@H](O[C@H]2CC(N)[C@H](O)C(C)O2)C1)C(=O)c1c(OC)cccc1C3=O (stereo partly drawn) [DOXO-SAH]	–	6.1 × 10^6	–
COc1cccc2c1C(=O)c1c(O)c3c(c(O)c1C2=O)C[C@](O)(/C(CO)=N/NC(=O)CCOCCOCCOCCOCCOCCOCCNC(=O)c1cc(I)cc(I)c1I)C[C@H]3O[C@H]1CC(N)[C@H](O)C(C)O1 (stereo partly drawn) [DOXO-TIB-HEXA]	–	5.5 × 10^5	–
COc1cccc2c1C(=O)c1c(O)c3c(c(O)c1C2=O)C[C@@](O)(C(=O)CO)C[C@@H]3O[C@H]1C[C@H](N)[C@H](O)[C@H](C)O1 [Doxorubicin, doxorubicin, reference compound]	–	2.9 × 10^3	KA relative to HSA, literature value [5]: 2.7 × 10^3
